Reference: US20200079765A1, “SUBSTITUTED HETEROARYL PYRROLONES AND SALTS THEREOF AND USE THEREOF AS HERBICIDAL ACTIVE SUBSTANCES” (Bayer CropScience Aktiengesellschaft, priority 2016, published 2020)

Columns and labels:
Lolium rigidum = assay: Post-emergence herbicidal action (Experimental Part 1, A); type: in vivo; settings: application rate 1280 g/ha, rated visually after about 3 weeks
Procedure, shortened: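 Greenhouse post-emergence spray test; sandy loam; treatment at one-leaf stage (2–3 wk after sowing); WP/EC formulation, 0.5% additive, 600 l/ha; dose 1280 or 320 g/ha; visual rating ~3 wk later, 0–100% scale.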

photosystem II (PS II) = target: T1, photosystem II (PS II) (Spinacia oleracea, UniProt P69560); assay: Measurement of the PS II activity in thylakoid membranes (DCPIP reduction, Experimental Part 3, Table E1); type: biochemical; settings: spinach thylakoid membranes
T1 construct: the chloroplasts were osmotically ruptured and the thylakoid membranes were then obtained by centrifugation; from tissue; host or cells: thylakoid membranes from fresh spinach leaves
Procedure, shortened: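 Spinach leaf thylakoid membranes in 50 mM phosphate pH 6.8, 10 mM KCl, 120 μM DCPIP, under light. Compounds added from 100 μM DMSO solution (2.5% DMSO final). DCPIP reduction read as absorbance decrease at 595 nm over 10 min at 22 °C, reported as percent-inhibition classes.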

| Effect (inhibition of PS II activity) (photosystem II (PS II)) | SMILES | Lolium rigidum, herbicidal activity (Lolium rigidum) [%] |
| --- | --- | --- |
| +++ (90%>inhibition≥70%) | CCC(=O)OC1C(C)=CC(=O)N1c1cc(C(C)(C)C)on1 (stereo not drawn) [I.5-162] | 90 |
| ++++ (inhibition≥90%) | CC1=CC(=O)N(c2cc(C(C)(C)C)on2)C1O (stereo not drawn) [I.1-162, 5-Hydroxy-4-methyl-1-(5-tert-butyl-1,2-isoxazol-3-yl)-1,5-dihydro-2H-pyrrol-2-one] | – |
